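Dose response: 5 concentrations. Exposure: 48 h. Format: 96-well plates. Endpoint: linear interpolation; highest concentration if not reached. At the TGI there is no net growth.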
How the values were obtained:
Test in all cases: DTP human tumour cell line panel, 48 h
SF-295 CNS = system: SF-295 CNS
CCRF-CEM leukemia = system: CCRF-CEM leukemia
NCI-H226 lung = system: NCI-H226 lung
NCI-H23 lung = system: NCI-H23 lung
UO-31 renal = system: UO-31 renal
BT-549 breast = system: BT-549 breast
SN12C renal = system: SN12C renal
HL-60(TB) leukemia = system: HL-60(TB) leukemia
KM12 colon = system: KM12 colon
HCT-116 colon = system: HCT-116 colon
UACC-257 melanoma = system: UACC-257 melanoma
SK-MEL-5 melanoma = system: SK-MEL-5 melanoma
COLO 205 colon = system: COLO 205 colon
RPMI-8226 leukemia = system: RPMI-8226 leukemia
A498 renal = system: A498 renal
DU-145 prostate = system: DU-145 prostate
MDA-MB-231 breast = system: MDA-MB-231 breast
OVCAR-8 ovarian = system: OVCAR-8 ovarian
OVCAR-4 ovarian = system: OVCAR-4 ovarian
SW-620 colon = system: SW-620 colon
OVCAR-3 ovarian = system: OVCAR-3 ovarian
MOLT-4 leukemia = system: MOLT-4 leukemia
786-0 renal = system: 786-0 renal
PC-3 prostate = system: PC-3 prostate
MDA-N = system: MDA-N
SK-MEL-28 melanoma = system: SK-MEL-28 melanoma
EKVX NSCLC = system: EKVX NSCLC
MALME-3M melanoma = system: MALME-3M melanoma
MDA-MB-435 = system: MDA-MB-435
CAKI-1 renal = system: CAKI-1 renal
SK-MEL-2 melanoma = system: SK-MEL-2 melanoma
SK-OV-3 ovarian = system: SK-OV-3 ovarian
SF-268 CNS = system: SF-268 CNS
HCC-2998 colon = system: HCC-2998 colon
HCT-15 colon = system: HCT-15 colon
OVCAR-5 ovarian = system: OVCAR-5 ovarian
U251 CNS = system: U251 CNS
NCI-H460 lung = system: NCI-H460 lung
UACC-62 melanoma = system: UACC-62 melanoma
NCI/ADR-RES ovarian = system: NCI/ADR-RES ovarian
SNB-75 CNS = system: SNB-75 CNS
HOP-92 NSCLC = system: HOP-92 NSCLC
TK-10 renal = system: TK-10 renal
HT29 colon = system: HT29 colon
IGROV1 ovarian = system: IGROV1 ovarian
SNB-19 CNS = system: SNB-19 CNS
MCF7 breast = system: MCF7 breast
HS 578T breast = system: HS 578T breast
RXF 393 renal = system: RXF 393 renal
T-47D breast = system: T-47D breast
A549 NSCLC = system: A549 NSCLC
ACHN renal = system: ACHN renal
HOP-62 NSCLC = system: HOP-62 NSCLC
K-562 leukemia = system: K-562 leukemia
M14 melanoma = system: M14 melanoma
LOX IMVI melanoma = system: LOX IMVI melanoma
NCI-H522 lung = system: NCI-H522 lung

COC(=O)[C@H](Cc1ccccc1)NC(=O)c1ccc(CNC(=O)/C=C/c2ccc(-c3ccccc3)cc2)cc1 was tested, and the TGI (SF-295 CNS) was 94.5 µM, the TGI (CCRF-CEM leukemia) was over 100 µM and the TGI (NCI-H226 lung) was over 100 µM. For the same compound, the TGI (NCI-H23 lung) was over 100 µM, the TGI (UO-31 renal) was over 100 µM and the TGI (BT-549 breast) was 97.2 µM. It also gave a TGI (SN12C renal) of over 100 µM, a TGI (HL-60(TB) leukemia) of over 100 µM and a TGI (KM12 colon) of over 100 µM. The TGI (HCT-116 colon) was over 100 µM, the TGI (UACC-257 melanoma) was over 100 µM and the TGI (SK-MEL-5 melanoma) was over 100 µM. The TGI (COLO 205 colon) was over 100 µM, the TGI (RPMI-8226 leukemia) was over 100 µM and the TGI (A498 renal) was over 100 µM. It also gave a TGI (DU-145 prostate) of over 100 µM, a TGI (MDA-MB-231 breast) of 76.7 µM and a TGI (OVCAR-8 ovarian) of over 100 µM. It also gave a TGI (OVCAR-4 ovarian) of over 100 µM, a TGI (SW-620 colon) of over 100 µM and a TGI (OVCAR-3 ovarian) of over 100 µM. For the same compound, the TGI (MOLT-4 leukemia) was over 100 µM, the TGI (786-0 renal) was over 100 µM and the TGI (PC-3 prostate) was over 100 µM. The TGI (MDA-N) was over 100 µM, the TGI (SK-MEL-28 melanoma) was over 100 µM and the TGI (EKVX NSCLC) was over 100 µM. The TGI (MALME-3M melanoma) was over 100 µM, the TGI (MDA-MB-435) was over 100 µM and the TGI (CAKI-1 renal) was over 100 µM. The TGI (SK-MEL-2 melanoma) was over 100 µM, the TGI (SK-OV-3 ovarian) was over 100 µM and the TGI (SF-268 CNS) was over 100 µM. For the same compound, the TGI (HCC-2998 colon) was over 100 µM, the TGI (HCT-15 colon) was over 100 µM and the TGI (OVCAR-5 ovarian) was over 100 µM. It also gave a TGI (U251 CNS) of 37.3 µM, a TGI (NCI-H460 lung) of over 100 µM and a TGI (UACC-62 melanoma) of over 100 µM. It also gave a TGI (NCI/ADR-RES ovarian) of over 100 µM, a TGI (SNB-75 CNS) of 48.3 µM and a TGI (HOP-92 NSCLC) of over 100 µM. For the same compound, the TGI (TK-10 renal) was over 100 µM, the TGI (HT29 colon) was over 100 µM and the TGI (IGROV1 ovarian) was over 100 µM. For the same compound, the TGI (SNB-19 CNS) was 39.1 µM, the TGI (MCF7 breast) was over 100 µM and the TGI (HS 578T breast) was 54.5 µM. It also gave a TGI (RXF 393 renal) of 40.3 µM, a TGI (T-47D breast) of over 100 µM and a TGI (A549 NSCLC) of over 100 µM. For the same compound, the TGI (ACHN renal) was over 100 µM, the TGI (HOP-62 NSCLC) was 45.4 µM and the TGI (K-562 leukemia) was over 100 µM. It also gave a TGI (M14 melanoma) of over 100 µM.

O=S(=O)(c1ccc(Br)cc1)n1c2ccc(Br)cc2c2nc3ccccc3nc21 was tested, and the TGI (SF-295 CNS) was over 100 µM, the TGI (CCRF-CEM leukemia) was over 100 µM and the TGI (NCI-H226 lung) was over 100 µM. It also gave a TGI (NCI-H23 lung) of over 100 µM, a TGI (UO-31 renal) of over 100 µM and a TGI (LOX IMVI melanoma) of over 100 µM. It also gave a TGI (BT-549 breast) of over 100 µM, a TGI (SN12C renal) of over 100 µM and a TGI (KM12 colon) of over 100 µM. It also gave a TGI (HCT-116 colon) of over 100 µM, a TGI (UACC-257 melanoma) of over 100 µM and a TGI (SK-MEL-5 melanoma) of over 100 µM. For the same compound, the TGI (COLO 205 colon) was over 100 µM, the TGI (RPMI-8226 leukemia) was over 100 µM and the TGI (A498 renal) was over 100 µM. For the same compound, the TGI (DU-145 prostate) was over 100 µM, the TGI (MDA-MB-231 breast) was over 100 µM and the TGI (OVCAR-8 ovarian) was over 100 µM. It also gave a TGI (OVCAR-4 ovarian) of over 100 µM, a TGI (SW-620 colon) of over 100 µM and a TGI (OVCAR-3 ovarian) of over 100 µM. It also gave a TGI (MOLT-4 leukemia) of over 100 µM, a TGI (786-0 renal) of over 100 µM and a TGI (PC-3 prostate) of over 100 µM. For the same compound, the TGI (MDA-N) was over 100 µM, the TGI (SK-MEL-28 melanoma) was over 100 µM and the TGI (EKVX NSCLC) was over 100 µM. For the same compound, the TGI (MALME-3M melanoma) was over 100 µM, the TGI (MDA-MB-435) was over 100 µM and the TGI (CAKI-1 renal) was over 100 µM. The TGI (SK-MEL-2 melanoma) was over 100 µM, the TGI (SK-OV-3 ovarian) was over 100 µM and the TGI (SF-268 CNS) was over 100 µM. It also gave a TGI (HCC-2998 colon) of over 100 µM, a TGI (HCT-15 colon) of over 100 µM and a TGI (OVCAR-5 ovarian) of over 100 µM. For the same compound, the TGI (U251 CNS) was 90.3 µM, the TGI (NCI-H460 lung) was over 100 µM and the TGI (UACC-62 melanoma) was over 100 µM. The TGI (NCI/ADR-RES ovarian) was over 100 µM, the TGI (SNB-75 CNS) was 82.6 µM and the TGI (HOP-92 NSCLC) was over 100 µM. The TGI (TK-10 renal) was over 100 µM, the TGI (HT29 colon) was over 100 µM and the TGI (IGROV1 ovarian) was over 100 µM. For the same compound, the TGI (NCI-H522 lung) was over 100 µM, the TGI (SNB-19 CNS) was over 100 µM and the TGI (HS 578T breast) was over 100 µM. The TGI (RXF 393 renal) was 53 µM, the TGI (T-47D breast) was over 100 µM and the TGI (A549 NSCLC) was over 100 µM. For the same compound, the TGI (ACHN renal) was over 100 µM, the TGI (HOP-62 NSCLC) was over 100 µM and the TGI (K-562 leukemia) was over 100 µM. For the same compound, the TGI (M14 melanoma) was over 100 µM.

Source: PubChem BioAssay (NCI)
